“Also recorded” adds a separate entry of the source.
What was measured:
[1] = system: β-lymphocytes (murine splenocytes) stimulated with lipopolysaccharide; experiment: In vitro blast-transformation of murine lymphocytes, LPS (β-lymphocyte mitogen), [3H]-thymidine; type: cell-based, mouse (CBA); details: for DNA synthesis at [^3 H]-thymidine [incorporated counts/min.]: LPS 0.1 μg/ml
Description: The immune reactions in an organism begins with the division of lymphocytes. In vitro investigation of the lymphocyte blast-transformationreaction under the influence of mitogens makes it possible to use this model system to select chemically synthesized 2'-5'A3 analogues which suppress division of lymphocytes. Using Concanavalin A and lipopolysaccharide as mitogens, the effect of analogues on the division of T- and β-lymphocytes may be investigated.
CBA mice 8-10 weeks old were used for these experiments. A suspension of mouse splenocytes were obtained by gently teasing spleens with forceps. Lymphocytes cultivated in flat-bottomed 96-well plates (Linbro) in RPMI-1640 medium (Flow Lab.) were supplemented with 2 mM 1-glutamine, 10 μg/ml gentamicin, 10^-5 M 2-mercaptoethanol and 10% heat inactivated fetal calf serum (Flow Lab). Cultures were maintained in 5% CO2 at 37° C. One μCi of ^3 H-thymidine (Isotop®) was added to each well 4 hours before the end of the incubation period. Incorporation of ^3 H-thymidine into cellular DNA was determined by liquid scintillation counting using standard techniques. Oligoadenylate was added to the medium at the beginning of culturing to achieve the final concentration.
(Con A being a mitogen for T-lymphocytes and LPS being a mitogen for β-lymphocytes).

[2] = system: α-interferon and γ-interferon; experiment: Immune system of monkeys: α- and γ-interferon; type: in vivo, Macaque Rh. monkeys
Experimental: Immunosuppressive activity of the prototype 2'-5'A3 and two analogues (2'-5')A2 Ar-epoxy and (2'-5')A2 A^l-epoxy were investigated in monkeys. The experiments were performed on 4 year-old Macaque Rh. monkeys. The levels of the principal subpopulations of T-lymphocytes, IgA, IgG, IgM and the amount of α- and γ-interferon and interleukin II after administration (2'-5')olygoadenylate and its analogies at the concentration of 50 and 25 μg/kg of the body weight was investigated.
Serum levels of IgG, IgA, IgM were determined by radial immunodiffusion using antisera against human immunoglobulin A, M, G. The amount of interferon and interleukine-II were determined by the method of Lopez-Botet M. et al., 1982.

[3] = system: T-killers; experiment: T-killers in monkeys after kidney transplantation; type: in vivo, Macaque Rh. monkeys; details: second group, 50 μg/kg every other day
Experimental: FLOW CYTOFLUOROGRAFIC ANALYSIS OF LYMPHOCYTE SUBSETS
Blood samples (100 μl of whole blood) were placed into a 12×17 tube. To these cells 20 μl of purified monoclonal antibodies were added with specificity for human cytotoxic/suppressor cells anti-Leu-2a (CD8), human helper/inducer anti-Leu-3a (CD4) and FITC conjugated monoclonal antibodies with specificity for natural killer cells-anti-Leu11c (CD16) (Becton Dickinson, San Jose). After 30 minutes incubation on ice, the cells were washed once and 20 μl of goat-antimouse chain phycoerythrin (Sigma P1286) conjugate were added to the tube with anti-Leu-2a and anti-Leu-3a monoclonal antibodies.
After erythrocyte lysing with FACS lysing solution (Becton Dickinson, San Jose) the cells were analyzed on FACScan flow cytometer (Becton Dickinson, San Jose) with scatter gate set on lymphocyte fraction.
The experiments were performed on 4 year-old Macaque Rh. monkeys. Each cohort consisted of 3 animals. […] The results of the experiments were evaluated clinically: by the presence or absence of urination from the ureterocutaneostoma.
After intravenous anesthesia with Ketalar®, an extraperitoneal access to the left kidney was performed through layer by layer cuts to the left lumbar region. The kidney was excised from the surrounding tissues. […]

[4] = single IV 25 μg/kg, day 0 (baseline)
[5] = single IV 50 μg/kg, day 0 (baseline)

Adenylyl (2'-5')adenylyl (2'-5')-9-(2,3-anhydro-β-D-ribofuranosyl) adenine disodium salt [(2'-5')A2 Ar-epoxy]
DNA synthesis at [^3 H]-thymidine [incorporated counts/min.] ([1]; 5 × 10^-6 M, control 27,133): 21,464 counts/min.
inhibition of lymphocyte blast-transformation, in words ([1]; LPS, β-lymphocytes): weaker effect of the division of β-lymphocytes
DNA synthesis at [^3 H]-thymidine [incorporated counts/min.] ([1]; Table 4, 5 × 10^-6 M, control 10,766): 7,665 counts/min.
DNA synthesis at [^3 H]-thymidine [incorporated counts/min.] ([1]; Table 4, 5 × 10^-7 M, control 10,766): 6,018 counts/min.
DNA synthesis at [^3 H]-thymidine [incorporated counts/min.] ([1]; Table 4, 5 × 10^-8 M, control 10,766): 4,767 counts/min.
DNA synthesis at [^3 H]-thymidine [incorporated counts/min.] ([1]; Table 4, 5 × 10^-9 M, control 10,766): 7,348 counts/min.
DNA synthesis at [^3 H]-thymidine [incorporated counts/min.] ([1]; Table 4, 5 × 10^-10 M, control 10,766): 672 counts/min.
DNA synthesis at [^3 H]-thymidine [incorporated counts/min.] ([1]; Table 5, 5 × 10^-6 M, control 5,513): 131 counts/min.
DNA synthesis at [^3 H]-thymidine [incorporated counts/min.] ([1]; Table 5, 5 × 10^-7 M, control 5,513): 292 counts/min.
DNA synthesis at [^3 H]-thymidine [incorporated counts/min.] ([1]; Table 5, 5 × 10^-8 M, control 5,513): 655 counts/min.
DNA synthesis at [^3 H]-thymidine [incorporated counts/min.] ([1]; Table 5, 5 × 10^-9 M, control 5,513): 3,342 counts/min.
DNA synthesis at [^3 H]-thymidine [incorporated counts/min.] ([1]; Table 5, 5 × 10^-10 M, control 5,513): 1,213 counts/min.
effect on interferon, in words ([2]; monkeys, single IV, two weeks, disodium salt): stimulates the level of α-interferon and γ-interferon in blood lymphocytes for a period of two weeks; also recorded: the quantity of α-interferon in blood plasma tends to normalize; also recorded: does not suppress the production of γ-interferon
α-interferon of lymphocytes [2, 4]: 16 Units per 10,000 lymphocytes
α-interferon of plasma [2, 4]: 8 Units per 10,000 lymphocytes
γ-interferon of lymphocytes [2, 4]: 4 Units per 10,000 lymphocytes
α-interferon of lymphocytes ([2]; single IV 25 μg/kg, day 1): 32 Units per 10,000 lymphocytes
α-interferon of plasma ([2]; single IV 25 μg/kg, day 1): 8 Units per 10,000 lymphocytes
γ-interferon of lymphocytes ([2]; single IV 25 μg/kg, day 1): 16 Units per 10,000 lymphocytes
α-interferon of lymphocytes ([2]; single IV 25 μg/kg, day 2): 32 Units per 10,000 lymphocytes
α-interferon of plasma ([2]; single IV 25 μg/kg, day 2): 4 Units per 10,000 lymphocytes
γ-interferon of lymphocytes ([2]; single IV 25 μg/kg, day 2): 16 Units per 10,000 lymphocytes
α-interferon of lymphocytes ([2]; single IV 25 μg/kg, day 12): 32 Units per 10,000 lymphocytes
α-interferon of plasma ([2]; single IV 25 μg/kg, day 12): 4 Units per 10,000 lymphocytes
γ-interferon of lymphocytes ([2]; single IV 25 μg/kg, day 12): 16 Units per 10,000 lymphocytes
α-interferon of lymphocytes ([2]; single IV 25 μg/kg, day 21): 16 Units per 10,000 lymphocytes
α-interferon of plasma ([2]; single IV 25 μg/kg, day 21): 4 Units per 10,000 lymphocytes
γ-interferon of lymphocytes ([2]; single IV 25 μg/kg, day 21): 8 Units per 10,000 lymphocytes
α-interferon of lymphocytes [2, 5]: 32 Units per 10,000 lymphocytes
α-interferon of plasma [2, 5]: 16 Units per 10,000 lymphocytes
γ-interferon of lymphocytes [2, 5]: 4 Units per 10,000 lymphocytes
α-interferon of lymphocytes ([2]; single IV 50 μg/kg, day 1): 32 Units per 10,000 lymphocytes
α-interferon of plasma ([2]; single IV 50 μg/kg, day 1): 32 Units per 10,000 lymphocytes
γ-interferon of lymphocytes ([2]; single IV 50 μg/kg, day 1): 8 Units per 10,000 lymphocytes
α-interferon of lymphocytes ([2]; single IV 50 μg/kg, day 2): 64 Units per 10,000 lymphocytes
α-interferon of plasma ([2]; single IV 50 μg/kg, day 2): 4 Units per 10,000 lymphocytes
γ-interferon of lymphocytes ([2]; single IV 50 μg/kg, day 2): 32 Units per 10,000 lymphocytes
α-interferon of lymphocytes ([2]; single IV 50 μg/kg, day 12): 64 Units per 10,000 lymphocytes
α-interferon of plasma ([2]; single IV 50 μg/kg, day 12): 4 Units per 10,000 lymphocytes
γ-interferon of lymphocytes ([2]; single IV 50 μg/kg, day 12): 32 Units per 10,000 lymphocytes
α-interferon of lymphocytes ([2]; single IV 50 μg/kg, day 21): 32 Units per 10,000 lymphocytes
α-interferon of plasma ([2]; single IV 50 μg/kg, day 21): 4 Units per 10,000 lymphocytes
γ-interferon of lymphocytes ([2]; single IV 50 μg/kg, day 21): 8 Units per 10,000 lymphocytes
T-killers, in words [3]: Analogous suppression effect

— patent US5571799A, “(2'-5') oligoadenylate analogues useful as inhibitors of host-v5.-graft response” (Basco, Ltd., priority 1994, dated 1996)
